Assay results taken from US20210386792A1, “A METHOD FOR INCREASING POPULATION OF SPERMATOGONIAL STEM CELLS” (priority 2018, published 2021).

Legend:
[1] = system: LiECs; test: GDNF ELISA in conditioned media from LiECs; format: cell-based; settings: mouse LiECs
Method: (§1) Testis, lung, or liver ECs were plated (10,000 cells ml^−1) on 12 well dishes coated with 0.1% gelatin and cultured for 24 hours. Conditioned media was harvested at 24 and 48 hours after FGF-2 (2 ng ml^−1, 20 ng ml^−1 and 50 ng ml^−1) treatment and analyzed by ELISA for GDNF (Promega GDNF Emax immunoassay system, #G7621) following the manufacturer's instruction. Statistics was analyzed using Graph Pad Prism. For quantification of Gdnf mRNA, total RNA was isolated from the cells using Direct-zol RNA MiniPrep (Zymo Research) and reverse transcribed using High Capacity cDNA Reverse Transcription Kit (Appliedbiosystems), according to the manufacturer's instructions. All gene expression levels were normalized to GAPDH mRNA levels.
(§2) FIG. 2. a. Quantication of GDNF by ELISA in conditioned media from TECs, LuECs and LiECs after treatment with the indicated concentration of FGF-2 for 2 days, n=3. Bar=100 μm. Data are presented as the mean±s.e.m. b. Representative brighteld (BF) and GFP images of 2D cultures of GFP+ SSCs co-cultured with STO cells or TECs plus exogenous GDNF and FGF-2 on days 1 and 8 after seeding. Quantication of stem cell numbers 8 days after co-culture with STO or TECs and the average colony area are shown on the right, n=3. Data are presented as the mean±s.e.m. Bar=100 μm. *P<0.05. c. […]

[2] = system: EGR-1; test: EGR-1 expression in DS-iPS EC; format: cell-based, human
[3] = system: LuECs; test: GDNF ELISA in conditioned media from LuECs; format: cell-based; settings: mouse LuECs
Method: as §1, §2

fibroblast growth factor-2 [FGF-2]
GDNF production in conditioned media of LiECs after FGF-2 treatment [1]: not | EGR-1 expression after FGF treatment [2]: minimal EGR-1 expression | GDNF production in conditioned media of LuECs after FGF-2 treatment [3]: not
